According to ChEMBL document CHEMBL1201862, “PubChem BioAssay data set” (2004):
Active and inactive are the calls of the source.

How the values were obtained:
[1] = target: Mitogen-activated protein kinase 10 (Homo sapiens, UniProt P53779); test: Dose response biochemical screening assay for inhibitors of c-Jun N-Terminal Kinase 3 (JNK3). [Related pubchem assays: 746 ]
Vero [2] = test: Vero cell viability after compound exposure – synthesized analogs, set II, cytotoxicity control for West Nile virus antiviral project, SAR follow-up (AID 2402); format: functional; details: Chlorocebus sabaeus
[3] = A Cell Based Assay for the Identification of Probe candidate Compounds with Anti- Venezuelan Equine Encephalitis virus. [Related pubchem assays: 2409, 2419, 1621, 2238, 2405, 2024, 2065, 2402, 2414, 1635, 1650, 2244 ]; format: functional
[4] = target: Sphingosine 1-phosphate receptor 3 (Homo sapiens, UniProt Q99500); test: Dose response cell-based high throughput screening assay for antagonists of the Sphingosine 1-Phosphate Receptor 3 (S1P3). [Related pubchem assays: 1429, 485 ]; format: functional
[5] = target: 5-hydroxytryptamine receptor 1E (Homo sapiens, UniProt P28566); test: Counterscreen assay for S1P3 antagonists: Dose response cell-based high throughput screening assay to identify antagonists of the 5-Hydroxytryptamine Receptor Subtype 1E (5HT1E). [Related pubchem assays: 1429, 485 ]; format: functional
[6] = viability loss of HPDE-C7K cells – cell-based, fluorescence, HTS, primary screen (AID 431); format: functional; details: Homo sapiens
[7] = potency of ADAM10 substrate cleavage blockers – biochemical, QFRET, dose response (AID 743254);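 further: ADAM10 enzyme with the DM2 quenched FRET peptide as substrate; EDANS fluorescence gain as the protease cuts the substrate; inhibitor potency against ADAM10 proteolytic activity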
[8] = HPDE-C7 pancreatic duct cell viability loss – fluorescence, HTS (AID 430); format: functional, cell-based; details: Homo sapiens
Cytochrome P450 3A4 [9] = target: T1, Cytochrome P450 3A4 (Homo sapiens, UniProt P08684); details: Potency
Ephrin type-A receptor 4 = Ephrin type-A receptor 4 (Mus musculus, UniProt Q03137); test: EphA4 ligand-binding antagonists – biochemical, colorimetric, mouse EphA4, primary screen (AID 689); format: functional
Cytochrome P450 2C19 = Cytochrome P450 2C19 (Homo sapiens, UniProt P33261); test: Cytochrome panel assay with activity outcomes. Panel member name: p450-cyp2c19 Compounds with AC50 equal or less than 10 uM are considered active; format: functional; details: read-out: AC50
Cytochrome P450 3A4 [10] = target: T1, Cytochrome P450 3A4
[11] = target: T2, RNA-binding protein pos-1 (Caenorhabditis elegans, UniProt G5EF15); test: disruptors of C. elegans POS-1 RNA interaction – biochemical, fluorescence polarization, dose response (AID 1964);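 further: purified POS-1 fused to maltose binding protein made in E. coli; potency of compounds blocking POS-1 binding to fluorescent RNA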
T2 sequence (G5EF15 whole entry): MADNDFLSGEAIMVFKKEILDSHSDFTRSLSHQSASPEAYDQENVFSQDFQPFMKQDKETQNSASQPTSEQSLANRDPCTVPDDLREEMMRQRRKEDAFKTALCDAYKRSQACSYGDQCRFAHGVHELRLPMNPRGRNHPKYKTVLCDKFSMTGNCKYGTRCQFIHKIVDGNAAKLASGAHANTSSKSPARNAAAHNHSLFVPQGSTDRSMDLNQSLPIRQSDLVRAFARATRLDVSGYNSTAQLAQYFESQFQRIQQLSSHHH

[12] = target: T3, Zinc finger protein mex-5 (Caenorhabditis elegans, UniProt Q9XUB2); test: potency of MEX-5 RNA-binding blockers – biochemical, C. elegans, fluorescence polarization, dose response (AID 1960)
T3 sequence (Q9XUB2 whole entry): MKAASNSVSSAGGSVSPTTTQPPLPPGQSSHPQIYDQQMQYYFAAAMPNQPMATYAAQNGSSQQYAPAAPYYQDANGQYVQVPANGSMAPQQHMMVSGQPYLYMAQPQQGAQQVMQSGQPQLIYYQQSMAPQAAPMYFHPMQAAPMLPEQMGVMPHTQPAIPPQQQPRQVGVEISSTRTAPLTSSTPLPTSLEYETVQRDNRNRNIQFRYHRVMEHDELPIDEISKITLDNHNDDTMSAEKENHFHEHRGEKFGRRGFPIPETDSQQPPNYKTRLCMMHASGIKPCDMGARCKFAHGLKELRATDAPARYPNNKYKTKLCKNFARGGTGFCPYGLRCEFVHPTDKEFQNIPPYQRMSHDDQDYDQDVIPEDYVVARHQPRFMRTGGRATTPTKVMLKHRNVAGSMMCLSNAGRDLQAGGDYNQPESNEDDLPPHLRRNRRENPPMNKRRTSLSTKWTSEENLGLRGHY

[13] = target: T4, Voltage-gated N-type calcium channel alpha-1B subunit/Amyloid beta A4 precursor protein-binding family A member 1 (Homo sapiens, UniProt Q00975+Q02410); test: disruptors of Mint-PDZ/N-type channel peptide interaction – biochemical, HTRF, set 2, SAR follow-up (AID 434980); format: functional
[14] = target: T4, Voltage-gated N-type calcium channel alpha-1B subunit/Amyloid beta A4 precursor protein-binding family A member 1; test: disruptors of Mint-PDZ/N-type channel peptide interaction – biochemical, HTRF, SAR follow-up (AID 2489); format: functional
[15] = viability of uninfected HEp-2 cells – cell-based, HTS, cytotoxicity control for RSV inhibitor project, dose response (AID 2410); format: functional; details: human respiratory syncytial virus
cells [16] = test: cells
[17] = cAMP pathway inhibition in counterscreen cell line – TR-FRET cAMP detection, counter-screen for MC4R biased antagonist project, dose response (AID 602305); format: functional, cell-based;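 further: U2OS cells stimulated with forskolin near its EC80 as the cAMP inducer; potency is for inhibition of forskolin-stimulated cAMP signaling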
Vero [18] = test: mammalian cell viability reduction – secondary assay, cytotoxicity control for West Nile virus antiviral project, dose response (AID 1650); format: functional; details: Chlorocebus sabaeus
Melanocortin receptor 4 = Melanocortin receptor 4 (Homo sapiens, UniProt P32245); test: inhibitors of MC4R cAMP signaling – cell-based, TR-FRET, biased antagonists, dose response (AID 602298); format: functional;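 further: antagonist potency against agonist-stimulated cAMP production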
[19] = viability inhibitors of stage V gametocytes – luminescence, dose response (AID 1117278); format: functional, cell-based;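 further: gametocytes exposed to compound for 24 hours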
[20] = viability loss in human Jurkat cells – cell-based, luminescence, cytotoxicity control for P. falciparum gametocyte viability project, dose response (AID 1117277); format: functional;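 further: potency reflects loss of cellular ATP meaning fewer viable cells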
[21] = target: 5-hydroxytryptamine receptor 1A (Homo sapiens, UniProt P08908); format: functional
[22] = Potency on glucagon-like peptide 1 release, dose-response in NCI-H716 cell line, half maximal inhibitory concentration (AID 1117344); format: functional, cell-based
[23] = glucagon-like peptide-1 release potency in STC-1, concentration-response, half-maximal inhibitory concentration in the STC-1 line (AID 1117345); format: functional, cell-based
[24] = target: T5, Low molecular weight phosphotyrosine protein phosphatase (Homo sapiens, UniProt P24666); test: inhibition of LMPTP-A enzymatic activity – biochemical, OMFP substrate, fluorescence intensity, set 2, dose response (AID 743307); format: functional
T5 sequence (P24666 whole entry): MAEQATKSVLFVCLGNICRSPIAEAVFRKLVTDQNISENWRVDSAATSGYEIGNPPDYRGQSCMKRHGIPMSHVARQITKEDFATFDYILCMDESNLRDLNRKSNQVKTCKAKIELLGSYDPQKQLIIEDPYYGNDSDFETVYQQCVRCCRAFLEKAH

[25] = target: T5, Low molecular weight phosphotyrosine protein phosphatase; test: inhibition of human LMPTP enzyme activity – biochemical, absorbance, pNPP substrate, LMPTP-A isoform, set 2, orthogonal assay, dose response (AID 743308); format: functional
Galanin receptor type 3 = target: T6, Galanin receptor type 3 (Homo sapiens, UniProt O60755); test: Fluorescence-based cell-based primary high throughput dose response assay to identify antagonists of the Galanin Receptor 3 (GalR3).; format: functional
T6 sequence (O60755 whole entry): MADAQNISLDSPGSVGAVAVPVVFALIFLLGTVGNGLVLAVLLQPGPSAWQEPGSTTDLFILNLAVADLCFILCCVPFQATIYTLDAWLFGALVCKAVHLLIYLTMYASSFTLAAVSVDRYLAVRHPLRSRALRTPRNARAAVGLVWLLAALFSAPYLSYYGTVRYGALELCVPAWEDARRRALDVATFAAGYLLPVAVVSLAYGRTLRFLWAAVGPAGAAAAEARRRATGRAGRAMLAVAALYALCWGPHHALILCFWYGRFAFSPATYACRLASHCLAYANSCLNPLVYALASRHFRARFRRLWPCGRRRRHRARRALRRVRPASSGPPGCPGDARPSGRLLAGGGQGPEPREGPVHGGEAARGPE

cells [26] = format: functional, cell-based; details: HEK-CNG

T1 sequence (P08684 whole entry): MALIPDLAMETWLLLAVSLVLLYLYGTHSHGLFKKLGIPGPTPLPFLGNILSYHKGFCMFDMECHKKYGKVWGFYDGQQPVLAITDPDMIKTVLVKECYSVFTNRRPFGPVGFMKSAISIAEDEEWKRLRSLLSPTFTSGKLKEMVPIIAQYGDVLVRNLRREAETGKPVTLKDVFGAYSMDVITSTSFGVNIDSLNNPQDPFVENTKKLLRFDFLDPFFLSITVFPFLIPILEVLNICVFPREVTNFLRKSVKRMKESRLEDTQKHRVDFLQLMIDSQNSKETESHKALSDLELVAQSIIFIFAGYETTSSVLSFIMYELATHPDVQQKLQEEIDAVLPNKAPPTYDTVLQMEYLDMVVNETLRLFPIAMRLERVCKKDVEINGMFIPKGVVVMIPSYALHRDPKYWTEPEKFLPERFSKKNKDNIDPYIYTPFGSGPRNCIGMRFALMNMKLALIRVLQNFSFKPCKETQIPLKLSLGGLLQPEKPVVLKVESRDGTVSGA
Chain of Mitogen-activated protein kinase 10 (P53779 whole entry): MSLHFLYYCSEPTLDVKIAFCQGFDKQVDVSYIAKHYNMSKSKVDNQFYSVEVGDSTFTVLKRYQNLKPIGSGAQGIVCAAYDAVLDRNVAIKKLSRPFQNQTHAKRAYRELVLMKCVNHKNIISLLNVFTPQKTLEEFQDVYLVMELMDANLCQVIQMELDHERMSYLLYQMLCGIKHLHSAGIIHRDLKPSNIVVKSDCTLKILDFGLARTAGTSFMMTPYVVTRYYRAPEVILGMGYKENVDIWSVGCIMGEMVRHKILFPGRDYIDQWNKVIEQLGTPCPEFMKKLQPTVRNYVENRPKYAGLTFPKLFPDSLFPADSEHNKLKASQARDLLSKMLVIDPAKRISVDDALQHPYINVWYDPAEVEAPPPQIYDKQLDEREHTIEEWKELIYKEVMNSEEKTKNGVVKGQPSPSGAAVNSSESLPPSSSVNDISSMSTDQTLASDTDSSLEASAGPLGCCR
T4 sequence (Q00975 whole entry): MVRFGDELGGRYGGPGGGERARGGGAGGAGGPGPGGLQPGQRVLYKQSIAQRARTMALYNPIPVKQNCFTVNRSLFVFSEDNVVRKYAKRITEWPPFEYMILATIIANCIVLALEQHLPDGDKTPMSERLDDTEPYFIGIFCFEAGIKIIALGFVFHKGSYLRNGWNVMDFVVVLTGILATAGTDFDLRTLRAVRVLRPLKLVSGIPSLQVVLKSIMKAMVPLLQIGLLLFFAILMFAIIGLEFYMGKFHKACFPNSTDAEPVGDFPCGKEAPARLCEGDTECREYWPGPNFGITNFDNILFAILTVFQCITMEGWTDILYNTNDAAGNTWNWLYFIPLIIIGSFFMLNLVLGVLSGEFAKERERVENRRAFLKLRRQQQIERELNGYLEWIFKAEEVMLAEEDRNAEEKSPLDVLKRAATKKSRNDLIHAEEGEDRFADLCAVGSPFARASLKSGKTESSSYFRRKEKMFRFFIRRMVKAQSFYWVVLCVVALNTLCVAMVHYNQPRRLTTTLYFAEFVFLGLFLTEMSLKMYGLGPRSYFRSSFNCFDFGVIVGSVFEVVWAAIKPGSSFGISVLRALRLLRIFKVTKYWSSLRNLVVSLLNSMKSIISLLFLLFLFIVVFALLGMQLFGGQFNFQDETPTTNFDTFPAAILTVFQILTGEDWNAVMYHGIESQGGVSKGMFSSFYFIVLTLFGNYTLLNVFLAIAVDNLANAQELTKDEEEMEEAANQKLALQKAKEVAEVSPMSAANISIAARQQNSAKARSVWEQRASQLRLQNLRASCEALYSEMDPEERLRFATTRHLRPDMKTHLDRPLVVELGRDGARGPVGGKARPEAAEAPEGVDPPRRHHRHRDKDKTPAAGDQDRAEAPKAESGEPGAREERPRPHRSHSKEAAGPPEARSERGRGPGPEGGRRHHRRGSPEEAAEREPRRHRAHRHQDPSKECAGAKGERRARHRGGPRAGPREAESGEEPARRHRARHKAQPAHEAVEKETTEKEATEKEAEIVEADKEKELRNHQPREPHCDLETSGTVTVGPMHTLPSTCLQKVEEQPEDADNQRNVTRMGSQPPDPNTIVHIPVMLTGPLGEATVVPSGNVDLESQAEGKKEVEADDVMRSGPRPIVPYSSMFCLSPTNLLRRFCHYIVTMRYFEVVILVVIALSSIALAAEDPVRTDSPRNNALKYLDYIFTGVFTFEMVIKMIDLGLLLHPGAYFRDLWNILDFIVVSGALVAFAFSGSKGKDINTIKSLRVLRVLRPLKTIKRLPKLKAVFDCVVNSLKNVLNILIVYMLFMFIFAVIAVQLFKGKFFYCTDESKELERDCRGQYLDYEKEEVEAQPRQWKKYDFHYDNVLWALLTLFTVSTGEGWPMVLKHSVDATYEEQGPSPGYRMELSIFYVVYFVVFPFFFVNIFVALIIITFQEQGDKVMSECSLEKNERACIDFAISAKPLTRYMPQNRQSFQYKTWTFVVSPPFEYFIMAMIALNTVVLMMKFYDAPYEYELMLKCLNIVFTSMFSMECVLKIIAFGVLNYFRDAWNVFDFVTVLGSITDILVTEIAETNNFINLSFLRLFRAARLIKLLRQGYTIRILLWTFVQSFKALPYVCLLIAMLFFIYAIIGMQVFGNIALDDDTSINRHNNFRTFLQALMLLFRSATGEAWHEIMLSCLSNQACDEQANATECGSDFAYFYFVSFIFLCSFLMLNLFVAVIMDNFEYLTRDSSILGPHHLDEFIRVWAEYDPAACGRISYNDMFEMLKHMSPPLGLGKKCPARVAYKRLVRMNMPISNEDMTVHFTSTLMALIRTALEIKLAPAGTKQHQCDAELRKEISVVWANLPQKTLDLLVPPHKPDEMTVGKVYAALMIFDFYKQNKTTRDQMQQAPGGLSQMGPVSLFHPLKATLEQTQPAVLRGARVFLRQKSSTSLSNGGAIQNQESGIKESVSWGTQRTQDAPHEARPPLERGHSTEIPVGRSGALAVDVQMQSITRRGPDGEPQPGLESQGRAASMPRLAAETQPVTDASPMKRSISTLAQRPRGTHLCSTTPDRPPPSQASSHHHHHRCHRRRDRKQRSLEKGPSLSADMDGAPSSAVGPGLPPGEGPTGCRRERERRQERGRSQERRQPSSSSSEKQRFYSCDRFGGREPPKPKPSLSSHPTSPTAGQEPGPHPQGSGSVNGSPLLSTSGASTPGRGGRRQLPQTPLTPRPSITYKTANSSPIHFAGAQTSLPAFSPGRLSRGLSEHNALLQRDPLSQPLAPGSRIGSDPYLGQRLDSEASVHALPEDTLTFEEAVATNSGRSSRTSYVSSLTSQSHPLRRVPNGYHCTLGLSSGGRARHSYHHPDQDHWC
T4 sequence (Q02410 whole entry): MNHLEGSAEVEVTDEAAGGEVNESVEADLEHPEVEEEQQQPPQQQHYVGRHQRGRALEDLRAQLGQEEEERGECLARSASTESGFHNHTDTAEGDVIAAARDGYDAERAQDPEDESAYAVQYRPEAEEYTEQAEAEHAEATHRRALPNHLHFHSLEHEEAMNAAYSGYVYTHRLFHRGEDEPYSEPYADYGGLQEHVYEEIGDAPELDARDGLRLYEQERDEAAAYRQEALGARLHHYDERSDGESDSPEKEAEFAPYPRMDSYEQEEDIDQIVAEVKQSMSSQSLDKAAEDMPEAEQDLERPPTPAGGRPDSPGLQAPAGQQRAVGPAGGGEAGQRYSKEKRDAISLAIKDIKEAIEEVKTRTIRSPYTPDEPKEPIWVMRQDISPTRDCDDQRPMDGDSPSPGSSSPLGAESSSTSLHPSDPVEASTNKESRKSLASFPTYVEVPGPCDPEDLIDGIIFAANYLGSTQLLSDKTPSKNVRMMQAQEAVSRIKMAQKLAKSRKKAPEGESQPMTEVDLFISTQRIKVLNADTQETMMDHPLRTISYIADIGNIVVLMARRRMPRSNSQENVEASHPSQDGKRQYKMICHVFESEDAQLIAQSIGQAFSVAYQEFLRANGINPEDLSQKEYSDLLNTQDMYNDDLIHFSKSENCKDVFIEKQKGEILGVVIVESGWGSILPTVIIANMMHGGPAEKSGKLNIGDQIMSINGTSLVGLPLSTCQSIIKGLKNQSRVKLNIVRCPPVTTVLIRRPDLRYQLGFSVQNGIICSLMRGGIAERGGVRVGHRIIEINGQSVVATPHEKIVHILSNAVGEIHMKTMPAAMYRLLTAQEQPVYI
Chain of Cytochrome P450 2C19 (P33261 whole entry): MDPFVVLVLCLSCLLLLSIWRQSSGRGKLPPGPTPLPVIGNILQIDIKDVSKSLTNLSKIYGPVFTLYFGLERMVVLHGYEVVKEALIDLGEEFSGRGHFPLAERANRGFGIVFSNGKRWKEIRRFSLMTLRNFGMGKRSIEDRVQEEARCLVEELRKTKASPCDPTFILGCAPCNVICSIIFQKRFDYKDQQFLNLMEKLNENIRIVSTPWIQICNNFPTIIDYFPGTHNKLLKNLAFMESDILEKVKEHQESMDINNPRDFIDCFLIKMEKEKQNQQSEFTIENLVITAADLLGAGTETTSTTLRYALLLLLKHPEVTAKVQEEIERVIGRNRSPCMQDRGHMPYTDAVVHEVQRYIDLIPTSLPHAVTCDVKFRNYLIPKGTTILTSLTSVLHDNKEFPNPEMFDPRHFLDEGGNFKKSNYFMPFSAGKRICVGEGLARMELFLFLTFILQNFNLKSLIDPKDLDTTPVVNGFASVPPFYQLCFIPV
Chain of 5-hydroxytryptamine receptor 1E (P28566 whole entry): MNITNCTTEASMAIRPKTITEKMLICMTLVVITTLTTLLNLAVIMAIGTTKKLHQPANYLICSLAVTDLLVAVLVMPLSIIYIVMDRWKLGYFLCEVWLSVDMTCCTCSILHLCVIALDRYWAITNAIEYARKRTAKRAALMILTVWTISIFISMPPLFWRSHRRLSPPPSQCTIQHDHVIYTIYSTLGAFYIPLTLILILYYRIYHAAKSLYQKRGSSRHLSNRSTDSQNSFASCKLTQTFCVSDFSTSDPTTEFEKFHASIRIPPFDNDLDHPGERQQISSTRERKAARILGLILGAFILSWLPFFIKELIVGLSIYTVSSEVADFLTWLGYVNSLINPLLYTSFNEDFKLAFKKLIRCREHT

## Fc1cc2nccnc2cc1N1CCSCC1
[1]
  IC50: 50.2 µM (not active)

## COc1ccc(-c2csc(N(CCCBr)C(=O)c3ccccc3Cl)n2)cc1
Vero [2]
  CC50: 78.2 µM (active)
[3]
  IC50: > 66.6 µM (active)

## Cc1ccc(NC(=O)C(C)c2ccc([N+](=O)[O-])cc2)cc1Cl (stereo not given)
[4]
  IC50: 11.3 µM (not active)
[5]
  IC50: 13.4 µM (not active)

## COc1ccc(-c2[nH]nc(C(F)(F)F)c2-c2cc3ccccc3o2)c(O)c1
[6]
  EC50: 3.68 µM (active)
[7]
  IC50: > 69.5 µM (inactive)
[8]
  EC50: 3.24 µM (active)

## Cc1nc(N2CCOCC2)c2nc(-c3ccccc3)n(C(C)CN(C)C)c2n1 (stereo not given)
Cytochrome P450 3A4 [9]
  AC50: 20 µM (inconclusive)

## CC1Cc2ccccc2N1Cc1nc(O)c2ccc(C(F)(F)F)cc2n1 (stereo not given)
Ephrin type-A receptor 4
  IC50: > 100 µM (not active)
Cytochrome P450 2C19
  AC50: 0.0282 µM (inconclusive)
Cytochrome P450 3A4 [10]
  AC50: 25.1 µM (inconclusive)

## COC1(OC)N=C(N)C2(C#N)C(c3ccc4c(c3)OCO4)C12C#N (stereo not given)
[11]
  EC50: 59.9 µM (active)
[12]
  EC50: 64.3 µM (active)
[1]
  IC50: > 93.1 µM (not active)

## Cc1ccc(N2C(=O)C3C(C2=O)C2(C)C=CC3(C)O2)cc1 (stereo not given)
[13]
  IC50: > 56.8 µM (inactive)
[14]
  IC50: 11.5 µM (active)

## Cc1ccc(Nc2nc(N/N=C/c3c[nH]c4ccccc34)nc(N3CCOCC3)n2)cc1
[15]
  CC50: 18.2 µM (active)
Cells [16]
  IC50: 20.5 µM (active)
[17]
  IC50: > 64.6 µM (inactive)
Vero [18]
  CC50: 12.9 µM (active)
Melanocortin receptor 4
  IC50: > 64.6 µM (inactive)

## CCOC(=O)CC1CCCCN1Cc1cn(C)nc1-c1ccc2c(c1)OCCO2 (stereo not given)
[19]
  IC50: > 109 µM (inactive)
[20]
  IC50: > 83.3 µM (inactive)

## Cn1cc(/C(Cc2ccccc2)=N\O)c2ccccc21
[21]
  EC50: > 50 µM (not active)

## CCOC(=O)[C@@H](N)CS
[22]
  IC50: > 40 µM (inactive)
[23]
  IC50: 14.3 µM (inactive)

## c1ccc(-c2nc(NCCN3CCCCC3)c3ccccc3n2)cc1
[24]
  IC50: 64.3 µM (inactive)
[25]
  IC50: > 80 µM (inactive)

## c1ccc(-c2nc(NCCN3CCOCC3)c3ccccc3n2)cc1
[24]
  IC50: 25.4 µM (inactive)
[25]
  IC50: 53.5 µM (inactive)

## CC(=O)OC(C)C[N+](C)(C)C (stereo not given) [METHACHOLINE CHLORIDE]
[22]
  IC50: > 40 µM (inactive)
Galanin receptor type 3
  IC50: 7.36 µM (active)
Cells [26]
  EC50: > 30 µM (inactive)
[23]
  IC50: > 40 µM (inactive)
